Laboratory results published in US10653146B2, “Microbiocidal oxadiazole derivatives” (SYNGENTA PARTICIPATIONS AG, priority 2016, dated 2020).

How the values were obtained:
[1] = test system: Glomerella lagenarium (Colletotrichum lagenarium); test: Fungicidal activity against Glomerella lagenarium (Colletotrichum lagenarium) liquid culture / cucumber / preventative (anthracnose); format: cell-based; conditions: Colletotrichum orbiculare; 20 ppm in the applied formulation; liquid culture in PDB, 24° C.; 3 to 4 days after application; read-out: disease control compared to untreated control (inhibition of growth measured photometrically)
Protocol: Mycelia fragments or conidia suspensions of a fungus prepared either freshly from liquid cultures of the fungus or from cryogenic storage, are directly mixed into nutrient broth. DMSO solutions of the test compound (max. 10 mg/ml) are diluted with 0.025% Tween20 by a factor of 50 and 10 μl of this solution is pipetted into a microtiter plate (96-well format). The nutrient broth containing the fungal spores/mycelia fragments is then added to give an end concentration of the tested compound. The test plates are incubated in the dark at 24° C. and 96% relative humidity. The inhibition of fungal growth is determined photometrically after 2 to 7 days, depending on the pathosystem, and percent antifungal activity relative to the untreated check is calculated.
Conidia of the fungus from cryogenic storage are directly mixed into nutrient broth (PDB—potato dextrose broth). After placing a (DMSO) solution of test compound into a microtiter plate (96-well format), the nutrient broth containing the fungal spores is added. The test plates are incubated at 24° C. and the inhibition of growth is measured photometrically 3 to 4 days after application.
The following compounds at 20 ppm in the applied formulation give at least 80% disease control in this test when compared to untreated control under the same conditions, which show extensive disease development.

[2] = test system: Puccinia recondita f. Sp. Tritici; test: Fungicidal activity against Puccinia recondita f. sp. tritici / wheat / leaf disc preventative (brown rust); format: in vivo; conditions: foliar, 200 ppm in the applied formulation, wheat leaf segments cv. Kanzler, inoculated 1 day after application, assessed 7 to 9 days after application, read-out: disease control compared to untreated control leaf disks
Protocol: Leaf disks or leaf segments of various plant species are cut from plants grown in a greenhouse. The cut leaf disks or segments are placed in multiwell plates (24-well format) onto water agar. The leaf disks are sprayed with a test solution before (preventative) or after (curative) inoculation. Compounds to be tested are prepared as DMSO solutions (max. 10 mg/ml) which are diluted to the appropriate concentration with 0.025% Tween20 just before spraying. The inoculated leaf disks or segments are incubated under defined conditions (temperature, relative humidity, light, etc.) according to the respective test system. A single evaluation of disease level is carried out 3 to 14 days after inoculation, depending on the pathosystem. Percent disease control relative to the untreated check leaf disks or segments is then calculated. Wheat leaf segments cv. Kanzler were placed on agar in multiwell plates (24-well format) and sprayed with the formulated test compound diluted in water. The leaf disks were inoculated with a spore suspension of the fungus 1 day after application. The inoculated leaf segments were incubated at 19° C. and 75% relative humidity (rh) under a light regime of 12 hours light/12 hours darkness in a climate cabinet and the activity of a compound was assessed as percent disease control compared to untreated when an appropriate level of disease damage appears in untreated check leaf segments (7 to 9 days after application). The following compounds at 200 ppm in the applied formulation give at least 80% disease control in this test when compared to untreated control leaf disks under the same conditions, which show extensive disease development.

[3] = test system: Puccinia recondite f. Sp. Tritici; test: Fungicidal activity against Puccinia recondite f. sp. tritici / wheat / leaf disc curative (brown rust); format: in vivo; conditions: foliar, 200 ppm in the applied formulation, wheat leaf segments cv. Kanzler, applied 1 day after inoculation, assessed 6 to 8 days after application, read-out: disease control compared to untreated control leaf disks
Protocol: Leaf disks or leaf segments of various plant species are cut from plants grown in a greenhouse. The cut leaf disks or segments are placed in multiwell plates (24-well format) onto water agar. The leaf disks are sprayed with a test solution before (preventative) or after (curative) inoculation. Compounds to be tested are prepared as DMSO solutions (max. 10 mg/ml) which are diluted to the appropriate concentration with 0.025% Tween20 just before spraying. The inoculated leaf disks or segments are incubated under defined conditions (temperature, relative humidity, light, etc.) according to the respective test system. A single evaluation of disease level is carried out 3 to 14 days after inoculation, depending on the pathosystem. Percent disease control relative to the untreated check leaf disks or segments is then calculated.
Wheat leaf segments cv. Kanzler are placed on agar in multiwell plates (24-well format). The leaf segments are then inoculated with a spore suspension of the fungus. Plates were stored in darkness at 19° C. and 75% relative humidity. The formulated test compound diluted in water was applied 1 day after inoculation. The leaf segments were incubated at 19° C. and 75% relative humidity under a light regime of 12 hours light/12 hours darkness in a climate cabinet and the activity of a compound was assessed as percent disease control compared to untreated when an appropriate level of disease damage appears in untreated check leaf segments (6 to 8 days after application).
The following compounds at 200 ppm in the applied formulation give at least 80% disease control in this test when compared to untreated control leaf disks under the same conditions, which show extensive disease development.

## CN(C)CCNC(=O)C(=O)c1ccc(-c2noc(C(F)(F)F)n2)cc1 [Compound 1.2, N-[2-(dimethyl-amino)ethyl]-2-oxo-2-[4-[5-(trifluoromethyl)-1,2,4-oxadiazol-3-yl]phenyl]acetamide]
[1]
  inhibition at 20 ppm: ≥ 80%

## CON1CCN(C(=O)C(=O)c2ccc(-c3noc(C(F)(F)F)n3)cc2)CC1 [Compound 1.3, 1-(4-methoxypiperazin-1-yl)-2-[4-[5-(trifluoromethyl)-1,2,4-oxadiazol-3-yl]phenyl]ethane-1,2-dione]
[2]
  pest or weed control at 200 ppm: ≥ 80%
[1]
  inhibition at 20 ppm: ≥ 80%

## O=C(NOCC(F)F)C(=O)c1ccc(-c2noc(C(F)(F)F)n2)cc1 [Compound 1.4, N-(2,2-difluoroethoxy)-2-oxo-2-[4-[5-(trifluoromethyl)-1,2,4-oxadiazol-3-yl]phenyl]acetamide]
[2]
  pest or weed control at 200 ppm: ≥ 80%
[1]
  inhibition at 20 ppm: ≥ 80%

## CN(C)C(=O)C(=O)c1ccc(-c2noc(C(F)(F)F)n2)cc1 [Compound 1.5, N,N-dimethyl-2-oxo-2-[4-[5-(trifluoromethyl)-1,2,4-oxadiazol-3-yl]phenyl]acetamide]
[2]
  pest or weed control at 200 ppm: ≥ 80%
[3]
  pest or weed control at 200 ppm: ≥ 80%
[1]
  inhibition at 20 ppm: ≥ 80%

## C=CCONC(=O)C(=O)c1ccc(-c2noc(C(F)(F)F)n2)cc1 [Compound 1.6, N-allyloxy-2-oxo-2-[4-[5-(trifluoromethyl)-1,2,4-oxadiazol-3-yl]phenyl]acetamide]
[2]
  pest or weed control at 200 ppm: ≥ 80%

## O=C(NCC(F)F)C(=O)c1ccc(-c2noc(C(F)(F)F)n2)cc1 [Compound 1.10, N-(2,2-difluoroethyl)-2-oxo-2-[4-[5-(trifluoromethyl)-1,2,4-oxadiazol-3-yl]phenyl]acetamide]
[2]
  pest or weed control at 200 ppm: ≥ 80%
[3]
  pest or weed control at 200 ppm: ≥ 80%
[1]
  inhibition at 20 ppm: ≥ 80%

## CC(=O)NCCNC(=O)C(=O)c1ccc(-c2noc(C(F)(F)F)n2)cc1 [Compound 1.11, N-(2-acetamidoethyl)-2-oxo-2-[4-[5-(trifluoromethyl)-1,2,4-oxadiazol-3-yl]phenyl]acetamide]
[2]
  pest or weed control at 200 ppm: ≥ 80%
[3]
  pest or weed control at 200 ppm: ≥ 80%
[1]
  inhibition at 20 ppm: ≥ 80%

## CCCN(C)C(=O)C(=O)c1ccc(-c2noc(C(F)(F)F)n2)cc1 [Compound 1.22, N-methyl-2-oxo-N-propyl-2-[4-[5-(trifluoromethyl)-1,2,4-oxadiazol-3-yl]phenyl]acetamide]
[2]
  pest or weed control at 200 ppm: ≥ 80%
[3]
  pest or weed control at 200 ppm: ≥ 80%
[1]
  inhibition at 20 ppm: ≥ 80%

## CSCCNC(=O)C(=O)c1ccc(-c2noc(C(F)(F)F)n2)cc1 [Compound 1.23, N-(2-methyl-sulfanylethyl)-2-oxo-2-[4-[5-(trifluoromethyl)-1,2,4-oxadiazol-3-yl]phenyl]acetamide]
[2]
  pest or weed control at 200 ppm: ≥ 80%
[3]
  pest or weed control at 200 ppm: ≥ 80%
[1]
  inhibition at 20 ppm: ≥ 80%

## O=C(NCC1COCCO1)C(=O)c1ccc(-c2noc(C(F)(F)F)n2)cc1 (stereo not shown) [Compound 1.28, N-(1,4-dioxan-2-ylmethyl)-2-oxo-2-[4-[5-(trifluoromethyl)-1,2,4-oxadiazol-3-yl]phenyl]acetamide]
[2]
  pest or weed control at 200 ppm: ≥ 80%
[3]
  pest or weed control at 200 ppm: ≥ 80%
[1]
  inhibition at 20 ppm: ≥ 80%

## Cc1ccsc1CN(C)C(=O)C(=O)c1ccc(-c2noc(C(F)(F)F)n2)cc1 [Compound 1.29, N-methyl-N-[(3-methyl-2-thienyl)methyl]-2-oxo-2-[4-[5-(trifluoromethyl)-1,2,4-oxadiazol-3-yl]phenyl]acetamide]
[1]
  inhibition at 20 ppm: ≥ 80%

## COCCN(CCOC)C(=O)C(=O)c1ccc(-c2noc(C(F)(F)F)n2)cc1 [Compound 1.30, N,N-bis(2-methoxyethyl)-2-oxo-2-[4-[5-(trifluoromethyl)-1,2,4-oxadiazol-3-yl]phenyl]acetamide]
[3]
  pest or weed control at 200 ppm: ≥ 80%
[1]
  inhibition at 20 ppm: ≥ 80%

## CN(C(=O)C(=O)c1ccc(-c2noc(C(F)(F)F)n2)cc1)c1ccccc1 [Compound 1.33, N-methyl-2-oxo-N-phenyl-2-[4-[5-(trifluoromethyl)-1,2,4-oxadiazol-3-yl]phenyl]acetamide]
[1]
  inhibition at 20 ppm: ≥ 80%
